Literature values, collected in patent publication US6800456B2, “Modified forms of hepatitis C NS3 protease for facilitating inhibitor screening and structural studies of protease:inhibitor complexes” (Bristol-Myers Squibb Company, priority 1999, dated 2004).
Square brackets hold non-standard residues; d marks the D form. Cha = N[C@@H](CC1CCCCC1)C(=O)O

Biological target: HCV protease (Hepatitis C virus genotype 1a, UniProt P26664)
Settings: Ingallinella et al., Biochemistry 37, 8906-8914 (1998)

Sequence of HCV protease (P26664 1027-1206 limits assumed, other chains not shown): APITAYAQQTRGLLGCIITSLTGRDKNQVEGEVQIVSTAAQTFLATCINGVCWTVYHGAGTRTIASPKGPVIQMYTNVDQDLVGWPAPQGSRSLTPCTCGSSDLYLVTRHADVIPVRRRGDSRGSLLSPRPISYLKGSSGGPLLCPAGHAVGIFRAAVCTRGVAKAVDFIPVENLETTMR

Ac-D[dE]LI[Cha]C-OH
IC50: 15 nM
